In EP0677522A1, “8-METHOXYQUINOLONECARBOXYLIC ACID DERIVATIVE” (priority 1992, dated 1994):
≈ marks a conversion by molar mass, not a printed value.

Columns and labels:
Test in all cases: In vitro antibacterial activity (MIC), Japan Society of Chemotherapy Standard
Format in all cases: cell-based
[1] = test system: Acinetobacter calcoaceticus ATCC 13006; details: ATCC13006, inoculated cells 10⁶ cells/ml
Summary of the method: (§1)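 Minimum inhibitory concentration, expressed in µg/ml, was determined by the Japanese standard procedure. Some strains required medium containing 10% horse blood, and the inoculum was 10⁶ cells/ml.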

[2] = test system: Streptococcus pyogenes C-203; details: C203, inoculated cells 10⁶ cells/ml, medium supplemented with 10% horse blood
Summary of the method: as §1

[3] = test system: P.aeruginosa U-31; details: Pseudomonas aeruginosa, U31; inoculated cells 10⁶ cells/ml
Summary of the method: as §1

[4] = test system: S. pneumoniae Type-III; details: Streptococcus pneumoniae; inoculated cells 10⁶ cells/ml; medium supplemented with 10% horse blood
Summary of the method: as §1

[5] = test system: Escherichia coli NIHJ JC-2; details: NIHJJC2, inoculated cells 10⁶ cells/ml
Summary of the method: as §1

[6] = test system: Corynebacterium diphtheriae Tronto; details: inoculated cells 10⁶ cells/ml, medium supplemented with 10% horse blood
Summary of the method: as §1

[7] = test system: M.catarrhalis ATCC 25238; details: Moraxella catarrhalis, ATCC25238; inoculated cells 10⁶ cells/ml; medium supplemented with 10% horse blood
Summary of the method: as §1

[8] = test system: S. epidermidis ATCC 12228; details: Staphylococcus epidermidis, ATCC12228; inoculated cells 10⁶ cells/ml
Summary of the method: as §1

[9] = test system: S. aureus No.88; details: Staphylococcus aureus; quinolone resistant MRSA; inoculated cells 10⁶ cells/ml
Summary of the method: as §1

Which results are given for CC1COc2c(N3CCN(C)CC3)c(F)cc3c(=O)c(C(=O)O)cn1c23 (stereo not drawn) [Comp. Ex. 2, 9-fluoro-2,3-dihydro-3-methyl-10-(4-methyl-1-piperazinyl)-7-oxo-7H-pyrido [1. 2. 3-de) [1.4] benzoxazine-6-carboxylic acid, reference compound]?
MIC [1]: 0.2 µg/mL (≈ 0.553 µM); MIC [2]: 1.56 µg/mL (≈ 4.32 µM); MIC [3]: 1.56 µg/mL (≈ 4.32 µM); MIC [4]: 0.78 µg/mL (≈ 2.16 µM); MIC [5]: 0.05 µg/mL (≈ 0.138 µM); MIC [6]: 0.39 µg/mL (≈ 1.08 µM); MIC [7]: 0.1 µg/mL (≈ 0.277 µM); MIC [8]: 0.2 µg/mL (≈ 0.553 µM); MIC [9]: 50 µg/mL (≈ 138 µM)
